Consider 15 molecules from patent US8865623B2, “Herbicidally active cyclic diones and derivatives thereof, processes for their preparation, compositions, and method of controlling weeds” (Syngenta Limited, priority 2009, dated 2014).

What all share (assay type): in vivo
For experiment [1], the system named is Alopecurus myosuroides (ALOMY). The experiment in a line: Pre-emergence herbicidal activity, glasshouse pot test. The note with it: Alopecurus myosuroides, 312 h, Rate 250 g/ha, evaluated after 13 days, read-out: Pre-emergence activity ALOMY (100=total damage to plant; 0=no damage to plant). The method, boiled down:
(§1)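 Pot-grown plants in standard soil received a spray one day post-sowing (pre-emergence) or after eight days' growth (post-emergence). Scoring took place 13 days later on a 0–100 scale, 100 meaning total damage.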

The test system of experiment [2] is Avena fatua (AVEFA). The experiment is described as above. Particulars: Avena fatua, 312 h, Rate 250 g/ha, evaluated after 13 days, read-out: Pre-emergence activity AVEFA (100=total damage to plant; 0=no damage to plant). The method, boiled down:
as §1

For experiment [3], the system named is Echinochloa crus-galli (ECHCG). Described as above. Particulars: Echinochloa crus-galli, 312 h, Rate 250 g/ha, evaluated after 13 days, read-out: Pre-emergence activity ECHCG (100=total damage to plant; 0=no damage to plant). The method, boiled down: as §1
Experiment [4] concerns Lolium perenne (LOLPE). The experiment is described as above. The note with it: Lolium perenne, 312 h, Rate 250 g/ha, evaluated after 13 days, read-out: Pre-emergence activity LOLPE (100=total damage to plant; 0=no damage to plant). In short, it runs like this:
as §1

For experiment [5], the system named is Alopecurus myosuroides (ALOMY). Kind of experiment: Post-emergence herbicidal activity, glasshouse pot test. The note with it: Alopecurus myosuroides, 312 h, rate 250 g/ha, evaluated after 13 days, read-out: Post-emergence activity ALOMY (100=total damage to plant; 0=no damage to plant). In short, it runs like this:
as §1

Experiment [6] concerns Avena fatua (AVEFA). The experiment is described as above. The note with it: Avena fatua, 312 h, rate 250 g/ha, evaluated after 13 days, read-out: Post-emergence activity AVEFA (100=total damage to plant; 0=no damage to plant). The method, boiled down:
as §1

The test system of experiment [7] is Echinochloa crus-galli (ECHCG). Described as above. The note with it: Echinochloa crus-galli, 312 h, rate 250 g/ha, evaluated after 13 days, read-out: Post-emergence activity ECHCG (100=total damage to plant; 0=no damage to plant). The method, boiled down:
as §1

In experiment [8] the test system is Lolium perenne (LOLPE). The experiment is described as above. Particulars: Lolium perenne, 312 h, rate 250 g/ha, evaluated after 13 days, read-out: Post-emergence activity LOLPE (100=total damage to plant; 0=no damage to plant). The method, boiled down: as §1

As to `CC1(C)OC(C)(C)C(O)=C(c2cc(Oc3ccc(Br)cc3F)ccc2C2CC2)C1=O` [Example A-350], the pest or weed control at 250 g/ha in experiment [1] (pre-emergence) is 90%; in the experiment on Avena fatua (AVEFA) [2] (pre-emergence) it was 50%; in experiment [3] (pre-emergence) it was 100%; with Lolium perenne (LOLPE) [4] (pre-emergence), 100%; in experiment [5], 90%; with Avena fatua (AVEFA) [6], 90%. Moreover, the pest or weed control at 250 g/ha in experiment [7] was 100%; in the experiment on Lolium perenne (LOLPE) [8], 90%.

On to `CCc1ccc(Oc2nc3ccc([N+](=O)[O-])cc3s2)cc1C1=C(O)[C@@H]2CC[C@](C)(C1=O)C2(C)C` [Example A-325], for which the pest or weed control at 250 g/ha in experiment [1] (pre-emergence spray) is 60%; with Avena fatua (AVEFA) [2] (pre-emergence spray), 20%; in experiment [3] (pre-emergence spray), 100%; in the experiment on Lolium perenne (LOLPE) [4] (pre-emergence spray), 90%; in experiment [5] (glasshouse) it was 50%; with Avena fatua (AVEFA) [6] (glasshouse), 30%. Moreover, the pest or weed control at 250 g/ha worked out at 100% in experiment [7] (glasshouse) and 40% in the experiment with Lolium perenne (LOLPE) [8] (glasshouse).

Consider `CCc1ccc(Oc2nc(F)c(F)cc2F)cc1C1=C(O)C(C)(C)OC(C)(C)C1=O` [Example A-167], for which the pest or weed control at 250 g/ha in experiment [1] (pre-emergence spray) came out at 30%; in the experiment with Avena fatua (AVEFA) [2] (pre-emergence spray) it was 10%; in experiment [3] (pre-emergence spray), 100%; in the experiment with Lolium perenne (LOLPE) [4] (pre-emergence spray), 30%; in experiment [5] (glasshouse), 60%; in the experiment on Avena fatua (AVEFA) [6] (glasshouse), 40%. In addition, the pest or weed control at 250 g/ha in experiment [7] (glasshouse) was determined as 100%; in the experiment with Lolium perenne (LOLPE) [8] (glasshouse), 50%.

For `CCc1ccc(Oc2nc(F)c(Cl)c(Cl)c2Cl)cc1C1=C(O)C(C)(C)OC(C)(C)C1=O` [Example A-60], the pest or weed control at 250 g/ha in experiment [1] (pre-emergence spray) came out at 0%; in the experiment with Avena fatua (AVEFA) [2] (pre-emergence spray) it was 0%; in experiment [3] (pre-emergence spray), 50%; in the experiment on Lolium perenne (LOLPE) [4] (pre-emergence spray), 40%; in experiment [5] (glasshouse), 0%; in the experiment on Avena fatua (AVEFA) [6] (glasshouse), 0%. Moreover, the pest or weed control at 250 g/ha (in experiment [7] (glasshouse); in the experiment with Lolium perenne (LOLPE) [8] (glasshouse)) was 0% throughout.

For the molecule `CCc1ccc(Oc2ccc(Br)cc2F)cc1C1=C(O)[C@H]2CC[C@H](C2)C1=O` [Example A-250], the pest or weed control at 250 g/ha in experiment [1] (pre-emergence spray) was found to be 80%; with Avena fatua (AVEFA) [2] (pre-emergence spray), 50%; in experiment [3] (pre-emergence spray) it was 90%; with Lolium perenne (LOLPE) [4] (pre-emergence spray), 80%; in experiment [5] (glasshouse) it was 90%; in the experiment with Avena fatua (AVEFA) [6] (glasshouse), 80%. For the same molecule, the pest or weed control at 250 g/ha in experiment [7] (glasshouse) stood at 100%; with Lolium perenne (LOLPE) [8] (glasshouse) it was 80%.

Consider `CCc1ccc(Oc2ccc(I)cn2)cc1C1=C(O)C(C)(C)OC(C)(C)C1=O` [Example A-163], for which the pest or weed control at 250 g/ha in experiment [1] (pre-emergence spray) was determined as 70%; with Avena fatua (AVEFA) [2] (pre-emergence spray), 70%; in experiment [3] (pre-emergence spray) it was 100%; in the experiment on Lolium perenne (LOLPE) [4] (pre-emergence spray), 100%; in experiment [5] (glasshouse), 90%; in the experiment with Avena fatua (AVEFA) [6] (glasshouse), 90%. In addition, the pest or weed control at 250 g/ha (in experiment [7] (glasshouse); with Lolium perenne (LOLPE) [8] (glasshouse)) was 100% throughout.

Take `CCc1ccc(Oc2ccc3cc(Cl)ccc3n2)cc1C1=C(O)C(C)(C)OC(C)(C)C1=O` [Example A-159]: the pest or weed control at 250 g/ha in experiment [1] (pre-emergence spray) came out at 30%; with Avena fatua (AVEFA) [2] (pre-emergence spray) it was 40%; in experiment [3] (pre-emergence spray), 90%; with Lolium perenne (LOLPE) [4] (pre-emergence spray), 100%; in experiment [5] (glasshouse) it was 80%; in the experiment on Avena fatua (AVEFA) [6] (glasshouse), 80%. The pest or weed control at 250 g/ha (in experiment [7] (glasshouse); in the experiment with Lolium perenne (LOLPE) [8] (glasshouse)) was 100% in each case.

`CCc1ccc(Oc2ccc([N+](=O)[O-])c(C(F)(F)F)c2)cc1C1=C(O)C(C)(C)OC(C)(C)C1=O` [Example A-197]: the pest or weed control at 250 g/ha in experiment [1] (pre-emergence spray) is 0%; with Avena fatua (AVEFA) [2] (pre-emergence spray) it was 10%; in experiment [3] (pre-emergence spray), 30%; in the experiment on Lolium perenne (LOLPE) [4] (pre-emergence spray) it was 20%; in experiment [5] (glasshouse), 70%; in the experiment on Avena fatua (AVEFA) [6] (glasshouse), 70%. The pest or weed control at 250 g/ha is 100% in experiment [7] (glasshouse) and 60% in the experiment on Lolium perenne (LOLPE) [8] (glasshouse).

`CCc1ccc(Oc2nc3ccc([N+](=O)[O-])cc3s2)cc1C1=C(O)[C@H]2CC[C@H](C2)C1=O` [Example A-342]: the pest or weed control at 250 g/ha in experiment [1] (pre-emergence spray) was 90%; with Avena fatua (AVEFA) [2] (pre-emergence spray), 60%; in experiment [3] (pre-emergence spray), 100%; with Lolium perenne (LOLPE) [4] (pre-emergence spray) it was 100%; in experiment [5] (glasshouse) it was 60%; in the experiment with Avena fatua (AVEFA) [6] (glasshouse), 70%. Further, the pest or weed control at 250 g/ha in experiment [7] (glasshouse) worked out at 100%; with Lolium perenne (LOLPE) [8] (glasshouse), 60%.

For `CCc1ccc(Oc2ccc(Cl)cc2F)cc1C1=C(O)CCC(C)(C)C1=O` [Example A-112], the pest or weed control at 250 g/ha in experiment [1] (pre-emergence spray) came out at 40%; with Avena fatua (AVEFA) [2] (pre-emergence spray) it was 30%; in experiment [3] (pre-emergence spray), 60%; in the experiment with Lolium perenne (LOLPE) [4] (pre-emergence spray), 90%; in experiment [5] (glasshouse), 20%; with Avena fatua (AVEFA) [6] (glasshouse) it was 20%. Besides, the pest or weed control at 250 g/ha in experiment [7] (glasshouse) came out at 70%; with Lolium perenne (LOLPE) [8] (glasshouse), 60%.

On to `CCc1ccc(Oc2ncc(Cl)cc2Cl)cc1C1=C(O)CC2(CCOCC2)CC1=O` [Example A-275], for which the pest or weed control at 250 g/ha in experiment [1] (pre-emergence spray) worked out at 100%; with Avena fatua (AVEFA) [2] (pre-emergence spray), 90%; in experiment [3] (pre-emergence spray), 100%; in the experiment on Lolium perenne (LOLPE) [4] (pre-emergence spray), 100%; in experiment [5] (glasshouse), 90%; in the experiment on Avena fatua (AVEFA) [6] (glasshouse), 100%. Besides, the pest or weed control at 250 g/ha (in experiment [7] (glasshouse); with Lolium perenne (LOLPE) [8] (glasshouse)) was 100% throughout.

As for `CCc1ccc(Oc2ncc(Cl)cn2)cc1C1=C(O)C(C)(C)OC(C)(C)C1=O` [Example A-107], the pest or weed control at 250 g/ha in experiment [1] (pre-emergence spray) stood at 90%; in the experiment on Avena fatua (AVEFA) [2] (pre-emergence spray), 80%; in experiment [3] (pre-emergence spray), 100%; in the experiment on Lolium perenne (LOLPE) [4] (pre-emergence spray), 100%; in experiment [5] (glasshouse) it was 80%; in the experiment on Avena fatua (AVEFA) [6] (glasshouse) it was 80%. Further, the figures for the pest or weed control at 250 g/ha (in experiment [7] (glasshouse); with Lolium perenne (LOLPE) [8] (glasshouse)) were 100% and 40%, respectively.

Take `CCc1ccc(Oc2ccc(Cl)cc2Cl)cc1C1=C(O)CCCC1=O` [Example A-40]: the pest or weed control at 250 g/ha is 50% in experiment [1] (pre-emergence spray); 20% in the experiment on Avena fatua (AVEFA) [2] (pre-emergence spray); 80% in experiment [3] (pre-emergence spray); 50% in the experiment with Lolium perenne (LOLPE) [4] (pre-emergence spray); 30% in experiment [5] (glasshouse); 40% in the experiment with Avena fatua (AVEFA) [6] (glasshouse). Also, the pest or weed control at 250 g/ha stood at 90% in experiment [7] (glasshouse) and 30% in the experiment with Lolium perenne (LOLPE) [8] (glasshouse).

Consider `CCc1ccc(Oc2ccc(Cl)cc2F)cc1C1=C(O)[C@H]2CC[C@H](C2)C1=O` (single isomer, unassigned) [Example A-89], for which the pest or weed control at 250 g/ha came to 80% in experiment [1] (pre-emergence spray); 80% with Avena fatua (AVEFA) [2] (pre-emergence spray); 100% in experiment [3] (pre-emergence spray); 100% in the experiment with Lolium perenne (LOLPE) [4] (pre-emergence spray); 90% in experiment [5] (glasshouse); 90% in the experiment with Avena fatua (AVEFA) [6] (glasshouse). Further, the pest or weed control at 250 g/ha in experiment [7] (glasshouse) was 100%; in the experiment on Lolium perenne (LOLPE) [8] (glasshouse), 60%.

On to `CCc1ccc(Oc2ncc(C(F)(F)F)cc2F)cc1C1=C(O)CC(C)(C)CC1=O` [Example A-285], for which the pest or weed control at 250 g/ha in experiment [1] (pre-emergence spray) stood at 90%; in the experiment with Avena fatua (AVEFA) [2] (pre-emergence spray) it was 70%; in experiment [3] (pre-emergence spray) it was 100%; in the experiment on Lolium perenne (LOLPE) [4] (pre-emergence spray) it was 100%; in experiment [5] (glasshouse), 100%; in the experiment on Avena fatua (AVEFA) [6] (glasshouse), 100%. In addition, the pest or weed control at 250 g/ha (in experiment [7] (glasshouse); in the experiment with Lolium perenne (LOLPE) [8] (glasshouse)) was 100% throughout.
